In patent publication US20040006061A1, “Alkoxybenzylamine” (priority 2001, published 2004):

These molecules were tested on Escherichia coli NCTC 8196 (assay: Determination of the Minimum Inhibitory Concentration (MIC value) in microtitre plates, Escherichia coli). Conditions: Escherichia coli, NCTC8196, 48 h, Escherichia coli NCTC 8196; CASO broth, 48 hours at 37° C.; MIC = ≦20% growth (optical density at 620 nm); read-out: MIC [μg/ml] EC.
Assay type: cell-based
Experimental: (§1) Determination of the Minimum Inhibitory Concentration (MIC Value) in Microtitre Plates
Casein-soybean flour-peptone broth for preparation of pre-cultures of test bacteria and yeast. […]
Escherichia coli NCTC 8196
(§2) The test substances are pre-dissolved in dimethyl sulfoxide (DMSO) and tested in a dilution series of 1:2.
(§3) The bacteria are cultured overnight in CASO broth and washed off using 10 ml of 0.85% sodium chloride solution (+0.1% Triton X-100).
(§4) All the test organisms are adjusted to an organism count of 1-5×10^6 CFU/ml using 0.85% sodium chloride solution.
(§5) The test substances are pre-pipetted into microtitre plates in amounts of 8 μl per well.
(§6) Pre-diluted test organism suspensions are diluted 1:100 in CASO broth.
(§7) The test batches are incubated for 48 hours at 37° C.
(§8) After incubation, the growth is determined on the basis of the turbidity of the test batches (optical density) at 620 nm in a microplate reader.
(§9) The minimum inhibitory concentration (MIC value) is the concentration of substance at which there is found (compared to the growth of the control) an appreciable inhibition of growth (≦20% growth) of the test organisms.
(§10) One microtitre plate is used for each test organism and substance concentration.
(§11) All the substances are tested in duplicate.

SMILES | MIC
CCCCCCOc1ccc(CN(C(C)C)C(C)C)cc1OCCCCCC [Compound of formula (91)] | > 120 µg/mL
CCCCCCCCCCCCN(C)Cc1ccc(OCCCCCCCC)c(OC)c1 [Compound of formula (51)] | > 120 µg/mL
CCCCCCCCCCCCOc1ccc(CN2CCOCC2)cc1OC [Compound of formula (8)] | > 120 µg/mL
CCCCCCOc1ccc(CN(C)CCCC)cc1OC [Compound of formula (25)] | > 120 µg/mL
CCCCCCCCCCCCOc1ccc(CN2CCCCC2)cc1OC [Compound of formula (3)] | > 120 µg/mL
CCCCCCOc1ccc(CN(C)CCc2ccccn2)cc1OCCCCCC [Compound of formula (87)] | > 120 µg/mL
CCCCCCCCOc1ccc(CN(C)CCCCCC)cc1OC [Compound of formula (48)] | > 120 µg/mL
CCCCCCOc1ccc(CN(C)CCCCCC)cc1OC [Compound of formula (32)] | 7.5 µg/mL
CCCCCCOc1ccc(CN2CCOCC2)cc1OC [Compound of formula (24)] | > 120 µg/mL
CCCCCCCCCCCCOc1ccc(CN(C)CCCC)cc1OC [Compound of formula (9)] | > 120 µg/mL
CCCCCCCCCCCCOc1ccc(CN(C)CC)cc1 [Compound of formula (77)] | > 120 µg/mL
CCCCCCCCCCCCOc1ccc(CN2CCNCC2)cc1 [Compound of formula (85)] | > 120 µg/mL
CCCCCCCCCCCCOc1ccc(CN2CCN(c3cccc(OC)c3)CC2)cc1OC [Compound of formula (22)] | > 120 µg/mL
CCCCCCOc1ccc(CN2CCN(C(C)=O)CC2)cc1OCCCCCC [Compound of formula (94)] | > 120 µg/mL
CCCCN(C)Cc1ccc(OCCC)c(OC)c1 [Compound of formula (57)] | 120 µg/mL
CCCCCCCCOc1ccc(CN(C)Cc2ccccc2)cc1OC [Compound of formula (47)] | > 120 µg/mL
CCCCCCCCCCCCOc1ccc(CN2CCOCC2)cc1 [Compound of formula (72)] | > 120 µg/mL
CCCCCCCCCCCCOc1ccc(CN(C)CCCCCC)cc1 [Compound of formula (80)] | > 120 µg/mL
CCCCCCOc1ccc(CN(C(C)C)C(C)C)cc1OC [Compound of formula (27)] | > 120 µg/mL
CCCOc1ccc(CN2CCCC2)cc1OC [Compound of formula (66)] | > 120 µg/mL
CCCCCCCCOc1ccc(CN(C)CCCC)cc1OC [Compound of formula (41)] | 15 µg/mL
CCCCCCCCOc1ccc(CN2CCN(C(C)=O)CC2)cc1OC [Compound of formula (46)] | 120 µg/mL
CCCCCCCCCCCCOc1ccc(CN2CCCCCC2)cc1 [Compound of formula (74)] | > 120 µg/mL
CCCOc1ccc(CN2CCCCC2)cc1OC [Compound of formula (70)] | > 120 µg/mL
CCCCCCCCOc1ccc(CN2CCCCCC2)cc1OC [Compound of formula (42)] | 15 µg/mL
CCCCCCOc1ccc(CN2CCN(C)CC2)cc1OCCCCCC [Compound of formula (92)] | 60 µg/mL

Same assay, conditions: Escherichia coli, NCTC8196, 48 h, read-out: MIC [μg/ml] EC

SMILES | MIC
CCCCCCOc1ccc(CN2CCN(C)CC2)cc1OC [Compound of formula (28)] | > 120 µg/mL
CCCCCCCCOc1ccc(CN2CCNCC2)cc1OC [Compound of formula (53)] | > 120 µg/mL
CCCOc1ccc(CN2CCN(CC)CC2)cc1OC [Compound of formula (65)] | > 120 µg/mL
CCCCCCOc1ccc(CN2CCNCC2)cc1OC [Compound of formula (37)] | > 120 µg/mL
CCCCCCOc1ccc(CN2CCN(CC)CC2)cc1OC [Compound of formula (33)] | > 120 µg/mL

Each molecule was assayed on Staphylococcus hominis DSM 20328 (assay: Determination of the Minimum Inhibitory Concentration (MIC value) in microtitre plates, Staphylococcus hominis). Conditions: Staphylococcus hominis, DSM20328, 48 h, Staphylococcus hominis DSM 20328; CASO broth, 48 hours at 37° C.; MIC = ≦20% growth (optical density at 620 nm); read-out: MIC [μg/ml] SH.
Assay type: cell-based
Experimental: as §1
Casein-soybean flour-peptone broth for preparation of pre-cultures of test bacteria and yeast.
Staphylococcus hominis DSM 20328 […]
as §2, §3, §4, §5, §6, §7, §8, §9, §10, §11

SMILES | MIC
CCCCCCOc1ccc(CN(C(C)C)C(C)C)cc1OCCCCCC [Compound of formula (91)] | > 120 µg/mL
CCCCCCCCCCCCN(C)Cc1ccc(OCCCCCCCC)c(OC)c1 [Compound of formula (51)] | > 120 µg/mL
CCCCCCCCCCCCOc1ccc(CN2CCOCC2)cc1OC [Compound of formula (8)] | > 120 µg/mL
CCCCCCOc1ccc(CN(C)CCCC)cc1OC [Compound of formula (25)] | > 120 µg/mL
CCCCCCCCCCCCOc1ccc(CN2CCCCC2)cc1OC [Compound of formula (3)] | 3.75 µg/mL
CCCCCCOc1ccc(CN(C)CCc2ccccn2)cc1OCCCCCC [Compound of formula (87)] | 30 µg/mL
CCCCCCCCOc1ccc(CN(C)CCCCCC)cc1OC [Compound of formula (48)] | 120 µg/mL
CCCCCCOc1ccc(CN(C)CCCCCC)cc1OC [Compound of formula (32)] | 60 µg/mL
CCCCCCOc1ccc(CN2CCOCC2)cc1OC [Compound of formula (24)] | > 120 µg/mL
CCCCCCCCCCCCOc1ccc(CN(C)CCCC)cc1OC [Compound of formula (9)] | 15 µg/mL
CCCCCCCCCCCCOc1ccc(CN(C)CC)cc1 [Compound of formula (77)] | 15 µg/mL
CCCCCCCCCCCCOc1ccc(CN2CCNCC2)cc1 [Compound of formula (85)] | > 120 µg/mL
CCCCCCCCCCCCOc1ccc(CN2CCN(c3cccc(OC)c3)CC2)cc1OC [Compound of formula (22)] | > 120 µg/mL
CCCCCCOc1ccc(CN2CCN(C(C)=O)CC2)cc1OCCCCCC [Compound of formula (94)] | > 120 µg/mL
CCCCN(C)Cc1ccc(OCCC)c(OC)c1 [Compound of formula (57)] | > 120 µg/mL
CCCCCCCCOc1ccc(CN(C)Cc2ccccc2)cc1OC [Compound of formula (47)] | > 120 µg/mL
CCCCCCCCCCCCOc1ccc(CN2CCOCC2)cc1 [Compound of formula (72)] | > 120 µg/mL
CCCCCCCCCCCCOc1ccc(CN(C)CCCCCC)cc1 [Compound of formula (80)] | 60 µg/mL
CCCCCCOc1ccc(CN(C(C)C)C(C)C)cc1OC [Compound of formula (27)] | > 120 µg/mL
CCCOc1ccc(CN2CCCC2)cc1OC [Compound of formula (66)] | > 120 µg/mL
CCCCCCCCOc1ccc(CN(C)CCCC)cc1OC [Compound of formula (41)] | 15 µg/mL
CCCCCCCCOc1ccc(CN2CCN(C(C)=O)CC2)cc1OC [Compound of formula (46)] | > 120 µg/mL
CCCCCCCCCCCCOc1ccc(CN2CCCCCC2)cc1 [Compound of formula (74)] | 3.75 µg/mL
CCCOc1ccc(CN2CCCCC2)cc1OC [Compound of formula (70)] | > 120 µg/mL
CCCCCCCCOc1ccc(CN2CCCCCC2)cc1OC [Compound of formula (42)] | 15 µg/mL
CCCCCCOc1ccc(CN2CCN(C)CC2)cc1OCCCCCC [Compound of formula (92)] | 15 µg/mL

Same assay, conditions: Staphylococcus hominis, DSM20328, 48 h, read-out: MIC [μg/ml] SH

SMILES | MIC
CCCCCCOc1ccc(CN2CCN(C)CC2)cc1OC [Compound of formula (28)] | > 120 µg/mL
CCCCCCCCOc1ccc(CN2CCNCC2)cc1OC [Compound of formula (53)] | > 120 µg/mL
CCCOc1ccc(CN2CCN(CC)CC2)cc1OC [Compound of formula (65)] | > 120 µg/mL
CCCCCCOc1ccc(CN2CCNCC2)cc1OC [Compound of formula (37)] | > 120 µg/mL
CCCCCCOc1ccc(CN2CCN(CC)CC2)cc1OC [Compound of formula (33)] | > 120 µg/mL
